Data reported in ChEMBL document CHEMBL1147107, “Safety and pharmacokinetics of brecanavir, a novel human immunodeficiency virus type 1 protease inhibitor, following repeat administration with and without ritonavir in healthy adult subjects” (Antimicrob Agents Chemother, 2007).

Columns and labels:
Type in all cases: ADME, organism-based
[1] = AUC (0-tau) in healthy human plasma at 800 mg for every 12 hrs measured on day 15
[2] = Cmax in healthy human plasma at 800 mg for every 12 hrs measured on day 15; design: dose 800 mg
[3] = Apparent oral clearance in healthy human plasma at 800 mg for every 12 hrs measured on day 15
[4] = Cmax in healthy human plasma at 800 mg measured on day 1; design: dose 800 mg
[5] = Tmax in healthy human plasma at 800 mg measured on day 1
[6] = Trough concentration in healthy human plasma at 800 mg for every 12 hrs measured on day 15; details: read-out: Cmin
[7] = Tmax in healthy human plasma at 800 mg for every 12 hrs measured on day 15

AUC tau at 12 h [1]: 199 ng·h/mL | Cmax [2]: 49.2 ng/mL | CL/F [3]: 67000 mL/min | Cmax [4]: 3.96 ng/mL | Tmax [5]: 2.5 h | concentration at 12 h [6]: 2.6 ng/mL | Tmax [7]: 3.75 h
SMILES: Cc1nc(COc2ccc(C[C@H](NC(=O)O[C@H]3CO[C@H]4OCC[C@H]43)[C@H](O)CN(CC(C)C)S(=O)(=O)c3ccc4c(c3)OCO4)cc2)cs1 [BRECANAVIR]
